Experimental data taken from US8658604B2, “Template-fixed beta-hairpin peptidomimetics with protease inhibitory activity” (Polyphor Ltd, priority 2005, dated 2014).
pIC50: −log10 of the molar value. Like-named read-outs stand apart in the source and are kept apart here. Where a SMILES comes first, the peptide text is derived from it.

Experiments:
HELA cells (Acc57) = assay: Cytotoxicity assay (MTT reduction), HELA cells; type: cell-based; details: Hela cells
Summary of the method: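 HeLa cells were grown for 24 h, then exposed to peptides at 12.5, 25 and 50 μM in triplicate for 48 h at 37 °C. MTT reduction was read at 595 nm and growth % calculated relative to time-zero wells. LC50 interpolated by linear trend at −50% growth, GI50 at 50%.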

[1] = target: T1, CathepsinG, from human neutrophils (Homo sapiens, UniProt P08311); assay: Enzymatic assay, cathepsin G
T1 sequence (P08311 21-244): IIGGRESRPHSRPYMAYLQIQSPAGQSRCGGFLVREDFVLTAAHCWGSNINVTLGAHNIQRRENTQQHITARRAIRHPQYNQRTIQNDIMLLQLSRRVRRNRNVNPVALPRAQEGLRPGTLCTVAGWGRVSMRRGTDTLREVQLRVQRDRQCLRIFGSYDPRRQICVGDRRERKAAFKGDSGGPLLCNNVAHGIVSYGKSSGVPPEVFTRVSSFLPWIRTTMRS

[2] = test system: Tryptase, from human lung; assay: Enzymatic assay, tryptase; details: at 100 μM
[3] = target: Urokinase from human urine (Homo sapiens, UniProt P00749); assay: Enzymatic assay, urokinase
[4] = test system: human red blood cells (hRBC); assay: Hemolysis
Experimental: The peptides were tested for their hemolytic activity against human red blood cells (hRBC). Fresh hRBC were washed three times with phosphate buffered saline (PBS) by centrifugation for 10 min at 2000×g. Peptides at a concentration of 100 μM were incubated with 20% v/v hRBC for 1 hour at 37° C. The final erythrocyte concentration was approximately 0.9×10^9 cells per ml. A value of 0% and, respectively, 100% cell lysis was determined by incubation of the hRBC in the presence of PBS alone and, respectively, 0.1% Triton X-100 in H2O. […] The 100% lysis value (OD540H20) gave an OD540 of approximately 1.3-1.8. Percent hemolysis was calculated as follows: (OD540peptide/OD540H20)×100%.

Chymase, from human skin = target: T2, Chymase, from human skin (Homo sapiens, UniProt P23946); assay: Enzymatic assay, chymase
T2 sequence (P23946 22-247): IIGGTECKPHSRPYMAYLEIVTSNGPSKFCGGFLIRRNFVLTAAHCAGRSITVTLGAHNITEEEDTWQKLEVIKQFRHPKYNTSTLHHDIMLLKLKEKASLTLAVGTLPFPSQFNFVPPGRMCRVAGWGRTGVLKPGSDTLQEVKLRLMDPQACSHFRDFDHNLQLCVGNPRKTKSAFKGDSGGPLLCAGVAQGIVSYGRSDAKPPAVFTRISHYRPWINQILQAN

[5] = target: T3, Elastase from human neutrophils (Homo sapiens, UniProt P08246); assay: Enzymatic assay, elastase
T3 sequence (P08246 30-267): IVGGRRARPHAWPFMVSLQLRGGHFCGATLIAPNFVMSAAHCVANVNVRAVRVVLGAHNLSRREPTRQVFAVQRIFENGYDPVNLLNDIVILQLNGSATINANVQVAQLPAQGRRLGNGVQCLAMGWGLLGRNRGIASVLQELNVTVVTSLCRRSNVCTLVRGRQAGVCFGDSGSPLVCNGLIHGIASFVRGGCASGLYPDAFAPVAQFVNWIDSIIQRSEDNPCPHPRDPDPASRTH

[6] = target: Chymotrypsin, from human pancreas (Homo sapiens, UniProt P17538); assay: Enzymatic assay, chymotrypsin; details: at 100 μM
Chain of Chymotrypsin, from human pancreas (P17538 19-263): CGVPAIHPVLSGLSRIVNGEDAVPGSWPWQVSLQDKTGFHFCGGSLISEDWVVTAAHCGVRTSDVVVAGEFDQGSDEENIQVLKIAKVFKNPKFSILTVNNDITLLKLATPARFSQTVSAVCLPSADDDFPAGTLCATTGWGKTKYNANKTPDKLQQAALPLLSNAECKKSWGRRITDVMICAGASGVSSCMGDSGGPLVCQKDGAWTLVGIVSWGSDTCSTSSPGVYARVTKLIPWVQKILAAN

[7] = target: Trypsin, from human pancreas (Homo sapiens, UniProt P07477); assay: Enzymatic assay, trypsin; details: at 100 μM
[8] = target: Thrombin, from Human Plasma (Homo sapiens, UniProt P00734); assay: Enzymatic assay, thrombin
[9] = target: Coagulation Factor Xa, from uman plasma (Homo sapiens, UniProt P00742); assay: Enzymatic assay, coagulation factor Xa
Chain of Coagulation Factor Xa, from uman plasma (P00742 235-488 limits assumed): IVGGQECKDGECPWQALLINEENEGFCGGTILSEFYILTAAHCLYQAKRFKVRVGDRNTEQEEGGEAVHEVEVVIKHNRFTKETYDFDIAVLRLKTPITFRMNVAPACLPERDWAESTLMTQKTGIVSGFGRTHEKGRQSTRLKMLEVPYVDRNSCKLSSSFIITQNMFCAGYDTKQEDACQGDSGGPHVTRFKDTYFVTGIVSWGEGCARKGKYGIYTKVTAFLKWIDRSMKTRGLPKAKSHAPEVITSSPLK
Chain of Coagulation Factor Xa, from uman plasma (P00742 41-179 limits assumed): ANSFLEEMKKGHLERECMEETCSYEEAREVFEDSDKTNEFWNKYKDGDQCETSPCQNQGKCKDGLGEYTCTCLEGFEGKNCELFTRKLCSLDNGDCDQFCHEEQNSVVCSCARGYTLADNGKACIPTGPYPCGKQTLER

Structure (SMILES)	Cytotoxicity LC50/GI50 Hela cells (HELA cells (Acc57))	pIC50 ([1]; Cathepsin G IC50)	Tryptase at 100 μM % [2]	Urokinase at 100 μM % [3]	Hemolysis at 100 μM % [4]	Chymase at 100 μM % (Chymase, from human skin)	pIC50 ([5]; read-out: Elastase IC50)	pIC50 ([1]; read-out: Cathepsin G IC50)	Chymotrypsin at 100 μM % [6]	Trypsin at 100 μM % [7]	pIC50 ([5]; Elastase IC50)	Thrombin at 100 μM % [8]	FXa at 100 μM % [9]
CC[C@H](C)[C@@H]1NC(=O)[C@@H]2CCCN2C(=O)[C@@H]2CCCN2C(=O)[C@H](CC(=O)O)NC(=O)[C@H](CO)NC(=O)[C@H](CCCCN)NC(=O)[C@H]([C@@H](C)O)NC(=O)[C@@H]2CSSC[C@H](NC1=O)C(=O)N[C@@H](CC(N)=O)C(=O)N1CCC[C@@H]1C(=O)N1CCC[C@H]1C(=O)N[C@@H](C1CCCCC1)C(=O)N2 [Ex. 37] (HELM PEPTIDE1{[O=C([C@@H](N[*:1])C1CCCCC1)[*:2]].C.T.K.S.D.P.P.I.C.N.[dP].P}$PEPTIDE1,PEPTIDE1,2:R3-10:R3|PEPTIDE1,PEPTIDE1,1:R1-13:R2$$$V2.0)	92 µM	7.46	56%	5%	0.1%								
CCCC[C@@H]1NC(=O)[C@@H]2CCCN2C(=O)[C@H]2CCCN2C(=O)[C@H]([C@@H](C)O)NC(=O)[C@@H]2CSSC[C@H](NC1=O)C(=O)N[C@@H]([C@@H](C)O)C(=O)N[C@@H](CCCCN)C(=O)N[C@@H](CO)C(=O)N[C@@H](CC(=O)O)C(=O)N1CCC[C@H]1C(=O)N1CCC[C@H]1C(=O)N[C@@H]([C@@H](C)CC)C(=O)N2 [Ex. 42] (HELM PEPTIDE1{[Nle].C.T.K.S.D.P.P.I.C.T.[dP].P}$PEPTIDE1,PEPTIDE1,2:R3-10:R3|PEPTIDE1,PEPTIDE1,1:R1-13:R2$$$V2.0)	87 µM	7.34	0%	7%	0%								
CCCC[C@@H]1NC(=O)[C@@H]2CCCN2C(=O)[C@@H]2CCCN2C(=O)[C@H](CC(=O)O)NC(=O)[C@H](CO)NC(=O)[C@H](CCCCN)NC(=O)[C@H]([C@@H](C)O)NC(=O)[C@@H]2CSSC[C@H](NC1=O)C(=O)N[C@@H](CO)C(=O)N1CCC[C@@H]1C(=O)N1CCC[C@H]1C(=O)N[C@@H](Cc1ccccc1)C(=O)N2 [Ex. 53] (HELM PEPTIDE1{F.C.T.K.S.D.P.P.[Nle].C.S.[dP].P}$PEPTIDE1,PEPTIDE1,2:R3-10:R3|PEPTIDE1,PEPTIDE1,1:R1-13:R2$$$V2.0)	63 µM				0%	12.7%	< 4.00	7.25	54%	95%			
CCCC[C@@H]1NC(=O)[C@@H]2CCCN2C(=O)[C@@H]2CCCN2C(=O)[C@H](CC(=O)O)NC(=O)[C@H](CO)NC(=O)[C@H](CCCCN)NC(=O)[C@H]([C@@H](C)O)NC(=O)[C@@H]2CSSC[C@H](NC1=O)C(=O)N[C@@H](CO)C(=O)N1CCC[C@@H]1C(=O)N1CCC[C@H]1C(=O)N[C@@H](Cc1ccccc1)C(=O)N2 [Ex. 15] (HELM PEPTIDE1{F.C.T.K.S.D.P.P.[Nle].C.S.[dP].P}$PEPTIDE1,PEPTIDE1,2:R3-10:R3|PEPTIDE1,PEPTIDE1,1:R1-13:R2$$$V2.0)	100 µM	7.25			0%	12.7%			54.2%	95.0%	< 4.00		
CCCC[C@@H]1NC(=O)[C@@H]2CCCN2C(=O)[C@@H]2CCCN2C(=O)[C@H](CC(=O)O)NC(=O)[C@H](CO)NC(=O)[C@H](CCCCN)NC(=O)[C@H]([C@@H](C)O)NC(=O)[C@@H]2CSSC[C@H](NC1=O)C(=O)N[C@@H](CCCNC(=N)N)C(=O)N1CCC[C@@H]1C(=O)N1CCC[C@H]1C(=O)N[C@@H]([C@@H](C)CC)C(=O)N2 [Ex. 57] (HELM PEPTIDE1{I.C.T.K.S.D.P.P.[Nle].C.R.[dP].P}$PEPTIDE1,PEPTIDE1,2:R3-10:R3|PEPTIDE1,PEPTIDE1,1:R1-13:R2$$$V2.0)			82.2%	4%	0%	26.9%	< 4.00	7.39	0%	94%		11%	32%
CC[C@H](C)[C@@H]1NC(=O)[C@@H]2CCCN2C(=O)[C@H]2CCCN2C(=O)[C@H](CCCNC(=N)N)NC(=O)[C@@H]2CSSC[C@H](NC1=O)C(=O)N[C@@H]([C@@H](C)O)C(=O)N[C@@H](CCCCN)C(=O)N[C@@H](CO)C(=O)N[C@@H](CC(=O)O)C(=O)N1CCC[C@H]1C(=O)N1CCC[C@H]1C(=O)N[C@@H](CCC(N)=O)C(=O)N2 [Ex. 55] (HELM PEPTIDE1{I.C.T.K.S.D.P.P.Q.C.R.[dP].P}$PEPTIDE1,PEPTIDE1,2:R3-10:R3|PEPTIDE1,PEPTIDE1,1:R1-13:R2$$$V2.0)	94 µM		90.4%		0.1%	27.6%	< 4.00	7.26	16%	90%			
CC[C@H](C)[C@@H]1NC(=O)[C@@H]2CCCN2C(=O)[C@H]2CCCN2C(=O)[C@H](CCCNC(=N)N)NC(=O)[C@@H]2CSSC[C@H](NC1=O)C(=O)N[C@@H]([C@@H](C)O)C(=O)N[C@@H](CCCCN)C(=O)N[C@@H](CO)C(=O)N[C@@H](CC(=O)O)C(=O)N1CCC[C@H]1C(=O)N1CCC[C@H]1C(=O)N[C@@H](Cc1ccc(O)cc1)C(=O)N2 [Ex. 18] (HELM PEPTIDE1{I.C.T.K.S.D.P.P.Y.C.R.[dP].P}$PEPTIDE1,PEPTIDE1,2:R3-10:R3|PEPTIDE1,PEPTIDE1,1:R1-13:R2$$$V2.0)	100 µM	7.33	88.3%		0%	32.5%			25%	84%	< 4.00	0%	
CC[C@H](C)[C@@H]1NC(=O)[C@@H]2CCCN2C(=O)[C@H]2CCCN2C(=O)[C@H](CCCNC(=N)N)NC(=O)[C@@H]2CSSC[C@H](NC1=O)C(=O)N[C@@H]([C@@H](C)O)C(=O)N[C@@H](CCCCN)C(=O)N[C@@H](CO)C(=O)N[C@@H](CC(=O)O)C(=O)N1CCC[C@H]1C(=O)N1CCC[C@H]1C(=O)N[C@@H](CCC(N)=O)C(=O)N2 [Ex. 17] (HELM PEPTIDE1{I.C.T.K.S.D.P.P.Q.C.R.[dP].P}$PEPTIDE1,PEPTIDE1,2:R3-10:R3|PEPTIDE1,PEPTIDE1,1:R1-13:R2$$$V2.0)	94 µM	7.26	90.4%		0.1%	27.6%			16%	90.0%	< 4.00	0%	
C[C@@H](O)[C@@H]1NC(=O)[C@@H]2CSSC[C@H](NC(=O)[C@H](Cc3ccc(O)cc3)NC(=O)[C@@H]3CCCN3C(=O)[C@@H]3CCCN3C(=O)[C@H](CC(=O)O)NC(=O)[C@H](CO)NC(=O)[C@H](CCCCN)NC1=O)C(=O)N[C@@H](Cc1ccc(O)cc1)C(=O)N1CCC[C@@H]1C(=O)N1CCC[C@H]1C(=O)N[C@@H](C1CCCCC1)C(=O)N2 [Ex. 65] (HELM PEPTIDE1{[O=C([C@@H](N[*:1])C1CCCCC1)[*:2]].C.T.K.S.D.P.P.Y.C.Y.[dP].P}$PEPTIDE1,PEPTIDE1,2:R3-10:R3|PEPTIDE1,PEPTIDE1,1:R1-13:R2$$$V2.0)	84 µM	7.33	57%	1%	0%								
CC[C@H](C)[C@@H]1NC(=O)[C@@H]2CCCN2C(=O)[C@@H]2CCCN2C(=O)[C@H](CC(=O)O)NC(=O)[C@H](CO)NC(=O)[C@H](CCCCN)NC(=O)[C@H]([C@@H](C)O)NC(=O)[C@@H]2CSSC[C@H](NC1=O)C(=O)N[C@@H](Cc1ccc(O)cc1)C(=O)N1CCC[C@@H]1C(=O)N1CCC[C@H]1C(=O)N[C@@H](CC1CCCCC1)C(=O)N2 [Ex. 36] (HELM PEPTIDE1{[Cha].C.T.K.S.D.P.P.I.C.Y.[dP].P}$PEPTIDE1,PEPTIDE1,2:R3-10:R3|PEPTIDE1,PEPTIDE1,1:R1-13:R2$$$V2.0)	83 µM	7.39	73.3%	0%	0%								
